From the NIST ThermoML archive (doi:10.1016/j.jct.2016.06.016)

Assay: xn = mol fraction of the nth substance listed
Settings: 100 kPa, Liquid; for viscosity: Concentric cylinders viscometry; for mass density: Vibrating tube method

CCOC(=O)CCC(=O)OCC [diethyl butanedioate] + CCCO
Settings | mass density [kg/m3] | viscosity [mPa·s]
288.15 K, x1 = 0.1 | 854.4 | 2.13
288.15 K, x1 = 0.2 | 891.88 | 2.009
288.15 K, x1 = 0.2999 | 922.67 | 2.025
288.15 K, x1 = 0.3998 | 948.47 | 2.105
288.15 K, x1 = 0.4999 | 970.46 | 2.214
288.15 K, x1 = 0.6001 | 989.43 | 2.341
288.15 K, x1 = 0.7001 | 1005.92 | 2.496
288.15 K, x1 = 0.8002 | 1020.45 | 2.69
288.15 K, x1 = 0.8997 | 1033.27 | 2.926
288.15 K, x1 = 1 | 1044.83 | 3.195
293.15 K, x1 = 0.1 | 850.08 | 1.889
293.15 K, x1 = 0.2 | 887.33 | 1.788
293.15 K, x1 = 0.2999 | 917.95 | 1.804
293.15 K, x1 = 0.3998 | 943.61 | 1.875
293.15 K, x1 = 0.4999 | 965.5 | 1.971
293.15 K, x1 = 0.6001 | 984.4 | 2.082
293.15 K, x1 = 0.7001 | 1000.83 | 2.215
293.15 K, x1 = 0.8002 | 1015.31 | 2.379
293.15 K, x1 = 0.8997 | 1028.1 | 2.578
293.15 K, x1 = 1 | 1039.63 | 2.807
298.15 K, x1 = 0.1 | 845.75 | 1.69
298.15 K, x1 = 0.2 | 882.77 | 1.608
298.15 K, x1 = 0.2999 | 913.21 | 1.622
298.15 K, x1 = 0.3998 | 938.75 | 1.684
298.15 K, x1 = 0.4999 | 960.54 | 1.767
298.15 K, x1 = 0.6001 | 979.36 | 1.866
298.15 K, x1 = 0.7001 | 995.74 | 1.983
298.15 K, x1 = 0.8002 | 1010.18 | 2.126
298.15 K, x1 = 0.8997 | 1022.93 | 2.297
298.15 K, x1 = 1 | 1034.44 | 2.491
303.15 K, x1 = 0.1 | 841.4 | 1.519
303.15 K, x1 = 0.2 | 878.18 | 1.452
303.15 K, x1 = 0.2999 | 908.46 | 1.465
303.15 K, x1 = 0.3998 | 933.87 | 1.518
303.15 K, x1 = 0.4999 | 955.57 | 1.593
303.15 K, x1 = 0.6001 | 974.32 | 1.682
303.15 K, x1 = 0.7001 | 990.64 | 1.787
303.15 K, x1 = 0.8002 | 1005.04 | 1.912
303.15 K, x1 = 0.8997 | 1017.76 | 2.061
303.15 K, x1 = 1 | 1029.25 | 2.229
308.15 K, x1 = 0.1 | 837.02 | 1.371
308.15 K, x1 = 0.2 | 873.57 | 1.316
308.15 K, x1 = 0.2999 | 903.69 | 1.328
308.15 K, x1 = 0.3998 | 928.98 | 1.376
308.15 K, x1 = 0.4999 | 950.59 | 1.444
308.15 K, x1 = 0.6001 | 969.27 | 1.524
308.15 K, x1 = 0.7001 | 985.54 | 1.619
308.15 K, x1 = 0.8002 | 999.9 | 1.731
308.15 K, x1 = 0.8997 | 1012.6 | 1.861
308.15 K, x1 = 1 | 1024.08 | 2.008
313.15 K, x1 = 0.1 | 832.6 | 1.248
313.15 K, x1 = 0.2 | 868.94 | 1.209
313.15 K, x1 = 0.2999 | 898.89 | 1.222
313.15 K, x1 = 0.3998 | 924.07 | 1.265
313.15 K, x1 = 0.4999 | 945.59 | 1.325
313.15 K, x1 = 0.6001 | 964.21 | 1.398
313.15 K, x1 = 0.7001 | 980.44 | 1.484
313.15 K, x1 = 0.8002 | 994.77 | 1.586
313.15 K, x1 = 0.8997 | 1007.44 | 1.7
313.15 K, x1 = 1 | 1018.9 | 1.821
318.15 K, x1 = 0.1 | 828.14 | 1.128
318.15 K, x1 = 0.2 | 864.27 | 1.096
318.15 K, x1 = 0.2999 | 894.07 | 1.11
318.15 K, x1 = 0.3998 | 919.14 | 1.15
318.15 K, x1 = 0.4999 | 940.58 | 1.206
318.15 K, x1 = 0.6001 | 959.14 | 1.274
318.15 K, x1 = 0.7001 | 975.33 | 1.352
318.15 K, x1 = 0.8002 | 989.62 | 1.443
318.15 K, x1 = 0.8997 | 1002.28 | 1.545
318.15 K, x1 = 1 | 1013.72 | 1.66
323.15 K, x1 = 0.1 | 823.65 | 1.029
323.15 K, x1 = 0.2 | 859.57 | 1.006
323.15 K, x1 = 0.2999 | 889.22 | 1.025
323.15 K, x1 = 0.3998 | 914.18 | 1.065
323.15 K, x1 = 0.4999 | 935.55 | 1.118
323.15 K, x1 = 0.6001 | 954.05 | 1.18
323.15 K, x1 = 0.7001 | 970.21 | 1.251
323.15 K, x1 = 0.8002 | 984.48 | 1.334
323.15 K, x1 = 0.8997 | 997.12 | 1.425
323.15 K, x1 = 1 | 1008.55 | 1.523
